# Results: ChEMBL document CHEMBL1201862, “PubChem BioAssay data set” (2004)
#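 Assay format: 96-well plates, 48-hour exposure. The concentration for 50% growth inhibition is given as GI50.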 The source made the active and inactive calls. Cut-off read from the data, not from the text of the source: active = GI50 up to about 1.1 µM and inactive = higher.
# Legend:
# Assay in all cases: DTP human tumour cell line panel, 48 h
# SK-MEL-5 = test system: SK-MEL-5
# HOP-92 = test system: HOP-92
# HCC 2998 = test system: HCC 2998
# NCI/ADR-RES = test system: NCI/ADR-RES
# T47D = test system: T47D
# LOX IMVI = test system: LOX IMVI
# SW-620 = test system: SW-620
# RPMI-8226 = test system: RPMI-8226
# SF-295 = test system: SF-295
# HCT-15 = test system: HCT-15
# M14 = test system: M14
# SR = test system: SR
# SF-268 = test system: SF-268
# Hs-578T = test system: Hs-578T
# SN12C = test system: SN12C
# NCI-H226 = test system: NCI-H226
# MDA-N = test system: MDA-N
# UACC-257 = test system: UACC-257
# HL-60 = test system: HL-60
# SK-MEL-2 = test system: SK-MEL-2
smiles,measurement,setting,value
O=C(/C=C1\Nc2ccc([N+](=O)[O-])cc2N\C1=C/C(=O)c1ccc(F)cc1)c1ccc(F)cc1,GI50,SK-MEL-5,78.5 µM (inactive)
same,GI50,HOP-92,35.1 µM (inactive)
same,GI50,HCC 2998,80 µM (inactive)
same,GI50,NCI/ADR-RES,82 µM (inactive)
same,GI50,T47D,82.8 µM (inactive)
same,GI50,LOX IMVI,> 100 µM (inactive)
same,GI50,SW-620,> 100 µM (inactive)
same,GI50,RPMI-8226,20.9 µM (inactive)
same,GI50,SF-295,14.9 µM (inactive)
same,GI50,HCT-15,64.7 µM
same,GI50,M14,> 100 µM (inactive)
same,GI50,SR,16.8 µM (inactive)
same,GI50,SF-268,9.71 µM (inactive)
same,GI50,Hs-578T,14.9 µM (inactive)
same,GI50,SN12C,90.2 µM (inactive)
same,GI50,NCI-H226,27.1 µM (inactive)
same,GI50,MDA-N,> 100 µM (inactive)
same,GI50,UACC-257,> 100 µM (inactive)
same,GI50,HL-60,20.7 µM (inactive)
same,GI50,SK-MEL-2,17.2 µM (inactive)
